Measurements reported in the supplement of paper PMC13207355.
Where a name gives a salt, the structure may show the parent alone.

Tests used:
Details in all cases: exposure time: 72 h
[1] = tested on: E13 (patient-derived glioblastoma stem cells of classical subtype); assay: surviving fraction (nuclei count normalised to DMSO); higher = more cells surviving (less toxic)
[2] = tested on: E21 (patient-derived glioblastoma stem cells of mesenchymal subtype); assay: as above
[3] = tested on: E28 (patient-derived glioblastoma stem cells of classical subtype); assay: as above
[4] = tested on: E31 (patient-derived glioblastoma stem cells of proneural subtype); assay: as above
[5] = tested on: E34 (patient-derived glioblastoma stem cells of proneural subtype); assay: as above
[6] = tested on: E57 (patient-derived glioblastoma stem cells of mesenchymal subtype); assay: as above
[7] = tested on: FT3469 (normal neural stem cell line); assay: as above
[8] = tested on: E13; assay: phenotypic distance (Euclidean, principal components) from DMSO controls (arbitrary units); higher = stronger morphological change
[9] = tested on: E21; assay: as above
[10] = tested on: E28; assay: as above
[11] = tested on: E31; assay: as above
[12] = tested on: E34; assay: as above
[13] = tested on: E57; assay: as above
[14] = tested on: FT3469; assay: as above
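Wherever phenotypic distance (Euclidean, principal components) from DMSO controls is given: cell Painting imaging in 384-well plates, CellProfiler features reduced to at least 20 principal components, Euclidean distance versus same-plate DMSO vehicle wells (0.1% v/v), median over six images per well.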
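Wherever surviving fraction (nuclei count normalised to DMSO) is given: nuclei counted by high-content imaging of Hoechst-stained cells in laminin-coated 384-well plates, relative to 0.1% DMSO vehicle wells, with staurosporine as cell-death control.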

C[C@@H]1CN([C@H]2CC[C@](C#N)(c3ccc(F)cc3)CC2)CC[C@]1(C(=O)O)c1ccccc1 [Levocabastine hydrochloride]
Details	phenotypic distance	surviving fraction
[1], 4.1 nM	–	0.997
[1], 12.3 nM	–	1.04
[1], 37 nM	–	1.06
[1], 111.1 nM	–	0.914
[1], 333.3 nM	–	1.05
[1], 1000 nM	–	0.985
[1], 3000 nM	–	0.918
[2], 4.1 nM	–	0.99
[2], 12.3 nM	–	1.15
[2], 37 nM	–	0.977
[2], 111.1 nM	–	1.12
[2], 333.3 nM	–	1.11
[2], 1000 nM	–	1.12
[2], 3000 nM	–	0.854
[3], 4.1 nM	–	1.07
[3], 12.3 nM	–	1.17
[3], 37 nM	–	1.13
[3], 111.1 nM	–	1.1
[3], 333.3 nM	–	1.1
[3], 1000 nM	–	1.12
[3], 3000 nM	–	0.949
[4], 4.1 nM	–	1.11
[4], 12.3 nM	–	1.06
[4], 37 nM	–	1.13
[4], 111.1 nM	–	1.01
[4], 333.3 nM	–	1.17
[4], 1000 nM	–	1.06
[4], 3000 nM	–	1.06
[5], 4.1 nM	–	1.01
[5], 12.3 nM	–	0.8
[5], 37 nM	–	1.25
[5], 111.1 nM	–	0.952
[5], 333.3 nM	–	0.972
[5], 1000 nM	–	0.909
[5], 3000 nM	–	1.22
[6], 4.1 nM	–	1.09
[6], 12.3 nM	–	1.02
[6], 37 nM	–	0.987
[6], 111.1 nM	–	1.11
[6], 333.3 nM	–	1.08
[6], 1000 nM	–	0.975
[6], 3000 nM	–	0.994
[7], 4.1 nM	–	1.08
[7], 12.3 nM	–	1.15
[7], 37 nM	–	1.05
[7], 111.1 nM	–	1.11
[7], 333.3 nM	–	1.04
[7], 1000 nM	–	1.07
[7], 3000 nM	–	0.784
[8], 4.1 nM	0.774	–
[8], 12.3 nM	0.599	–
[8], 37 nM	0.564	–
[8], 111.1 nM	0.596	–
[8], 333.3 nM	0.491	–
[8], 1000 nM	0.354	–
[8], 3000 nM	0.712	–
[9], 4.1 nM	0.745	–
[9], 12.3 nM	0.621	–
[9], 37 nM	0.743	–
[9], 111.1 nM	0.866	–
[9], 333.3 nM	0.582	–
[9], 1000 nM	0.688	–
[9], 3000 nM	3.41	–
[10], 4.1 nM	0.787	–
[10], 12.3 nM	0.763	–
[10], 37 nM	0.863	–
[10], 111.1 nM	0.374	–
[10], 333.3 nM	0.741	–
[10], 1000 nM	0.713	–
[10], 3000 nM	1.04	–
[11], 4.1 nM	0.412	–
[11], 12.3 nM	0.744	–
[11], 37 nM	0.868	–
[11], 111.1 nM	0.539	–
[11], 333.3 nM	0.794	–
[11], 1000 nM	0.681	–
[11], 3000 nM	0.779	–
[12], 4.1 nM	0.554	–
[12], 12.3 nM	1.09	–
[12], 37 nM	0.93	–
[12], 111.1 nM	0.824	–
[12], 333.3 nM	0.742	–
[12], 1000 nM	0.79	–
[12], 3000 nM	0.624	–
[13], 4.1 nM	1.04	–
[13], 12.3 nM	0.495	–
[13], 37 nM	0.313	–
[13], 111.1 nM	0.928	–
[13], 333.3 nM	4.21	–
[13], 1000 nM	0.708	–
[13], 3000 nM	0.745	–
[14], 4.1 nM	0.782	–
[14], 12.3 nM	0.792	–
[14], 37 nM	0.998	–
[14], 111.1 nM	0.719	–
[14], 333.3 nM	3.75	–
[14], 1000 nM	0.437	–
[14], 3000 nM	3.86	–

CC(C)NCC(O)c1cc(O)cc(O)c1 (stereo unspecified) [Metaproterenol sulfate, orciprenaline sulfate]
Details	phenotypic distance	surviving fraction
[1], 4.1 nM	–	0.979
[1], 12.3 nM	–	0.957
[1], 37 nM	–	1.06
[1], 111.1 nM	–	0.933
[1], 333.3 nM	–	1.06
[1], 1000 nM	–	0.995
[1], 3000 nM	–	1.06
[2], 4.1 nM	–	1
[2], 12.3 nM	–	0.995
[2], 37 nM	–	1.01
[2], 111.1 nM	–	1.05
[2], 333.3 nM	–	1.13
[2], 1000 nM	–	1.02
[2], 3000 nM	–	1.07
[3], 4.1 nM	–	1.2
[3], 12.3 nM	–	1.1
[3], 37 nM	–	1.06
[3], 111.1 nM	–	1.14
[3], 333.3 nM	–	1.21
[3], 1000 nM	–	1.04
[3], 3000 nM	–	1.13
[4], 4.1 nM	–	0.982
[4], 12.3 nM	–	1.02
[4], 37 nM	–	0.984
[4], 111.1 nM	–	1.14
[4], 333.3 nM	–	1.02
[4], 1000 nM	–	1.13
[4], 3000 nM	–	1.03
[5], 4.1 nM	–	0.922
[5], 12.3 nM	–	1.02
[5], 37 nM	–	1.04
[5], 111.1 nM	–	0.924
[5], 333.3 nM	–	1.02
[5], 1000 nM	–	1.24
[5], 3000 nM	–	0.961
[6], 4.1 nM	–	1.18
[6], 12.3 nM	–	1.11
[6], 37 nM	–	1.14
[6], 111.1 nM	–	0.953
[6], 333.3 nM	–	1.07
[6], 1000 nM	–	1.18
[6], 3000 nM	–	1.02
[7], 4.1 nM	–	1.18
[7], 12.3 nM	–	1.32
[7], 37 nM	–	1.05
[7], 111.1 nM	–	1.14
[7], 333.3 nM	–	1.13
[7], 1000 nM	–	1.04
[7], 3000 nM	–	1.22
[8], 4.1 nM	0.452	–
[8], 12.3 nM	0.546	–
[8], 37 nM	0.581	–
[8], 111.1 nM	0.458	–
[8], 333.3 nM	0.743	–
[8], 1000 nM	0.439	–
[8], 3000 nM	0.72	–
[9], 4.1 nM	0.506	–
[9], 12.3 nM	0.541	–
[9], 37 nM	0.821	–
[9], 111.1 nM	2.96	–
[9], 333.3 nM	0.869	–
[9], 1000 nM	0.684	–
[9], 3000 nM	0.751	–
[10], 4.1 nM	0.775	–
[10], 12.3 nM	0.464	–
[10], 37 nM	0.677	–
[10], 111.1 nM	0.689	–
[10], 333.3 nM	1.06	–
[10], 1000 nM	0.558	–
[10], 3000 nM	0.934	–
[11], 4.1 nM	0.663	–
[11], 12.3 nM	0.455	–
[11], 37 nM	0.562	–
[11], 111.1 nM	0.625	–
[11], 333.3 nM	0.672	–
[11], 1000 nM	0.447	–
[11], 3000 nM	0.615	–
[12], 4.1 nM	0.654	–
[12], 12.3 nM	0.671	–
[12], 37 nM	0.473	–
[12], 111.1 nM	0.805	–
[12], 333.3 nM	0.747	–
[12], 1000 nM	0.882	–
[12], 3000 nM	0.769	–
[13], 4.1 nM	0.966	–
[13], 12.3 nM	0.872	–
[13], 37 nM	0.874	–
[13], 111.1 nM	0.737	–
[13], 333.3 nM	1	–
[13], 1000 nM	0.774	–
[13], 3000 nM	0.716	–
[14], 4.1 nM	1.07	–
[14], 12.3 nM	1.13	–
[14], 37 nM	0.697	–
[14], 111.1 nM	0.559	–
[14], 333.3 nM	0.916	–
[14], 1000 nM	1.01	–
[14], 3000 nM	1.08	–
